Values quoted from earlier work in patent US12479917B2, “Methods of treating NSCLC comprising administering platinum doublet chemotherapy followed by an anti-PD-1 antibody and an anti-CTLA-4 antibody” (priority 2018, dated 2025).

Key:
advanced NSCLC = details: second line (2 L)
[1] = monotherapy, every two weeks; MTD not reached

Row | Compound | efficacy outcomes compared with docetaxel (advanced NSCLC) | side effects compared with docetaxel (advanced NSCLC) | maximum tolerated dose (MTD) [1]
1 | Nc1nc2[nH]cc(CCc3ccc(C(=O)N[C@@H](CCC(=O)O)C(=O)O)cc3)c2c(=O)[nH]1 [Pemetrexed] | clinically equivalent efficacy outcomes | significantly fewer side effects | 
2 | nivolumab |  |  | > 10 mg/kg
